Laboratory results: patent US20260022098A1, “BULLEYACONITINE A DERIVATIVE WITH ANALGESIC ACTIVITY, AND PREPARATION METHOD AND APPLICATION THEREOF” (priority 2023, published 2026)

What was measured:
Kunming mice [1] = experiment: Analgesic activity by acetic acid-induced writhing method (writhing inhibition rate, ED50); assay type: in vivo; settings: Mus musculus, sc, read-out: Analgesia rate (%) ± SEM
Description: (§1) The experimental animals were Kunming mice (male:female=1:1), weighed 22+2 g, which were provided by Chengdu dossy experimental animals Co., ltd., China. The mice were kept in the animal room of the School of Life Science and Engineering, Southwest Jiaotong University, where the animal room was set at a temperature of 23±2° C., a humidity of […] and a photoperiod of 16:8 h (L:D). Before the experiment, the mice were freely fed for 2-3 days with water and feed to adapt to the new environment. Then, the mice were treated by water and food fasting for 12 h. 10 animals were allocated to each group to ensure that there are at least 6 sets of valid data in each group. The animal experiments were carried out in strict accordance with the national regulations on the management of experimental animals.
(§2) The compounds prepared in the examples provided herein (test sample set) and bulleyaconitine A (positive control set) were all dissolved with 0.1 mol/L HCl according to a molar ratio of 1:1, and then diluted with physiological saline to a concentration to be determined. Blank control was physiological saline containing 0.1 mol/L HCl. The animals in the control groups were subjected to the same treatment as those in experimental groups except that samples to be test were replaced with physiological saline.
(1) Determination of Analgesic Activity Through an Acetic Acid-Induced Writhing Method
10 mice were randomly selected, male:female=1:1, were placed in independent cages. Each mouse was injected subcutaneously with the sample solution mentioned above at a dose of 0.1 mL/10 g body weight. After 15 min, a 0.7% acetic acid solution was intraperitoneally injected. A number of writhing reactions in each mouse within 15 minutes was recorded. The group that the mice were injected with physiological saline subcutaneously was the blank group; the group that the mice were injected with the sample to be tested was the experimental group; and the group that the mice were injected with bulleyaconitine A was the positive group. The analgesic activity was represented by a percentage of the reduced number of writhing compared to the blank group (writhing inhibition rate), which were specifically as follows: writhing inhibition rate (analgesic activity)=(average number of writhing times in the blank group-average number of writhing times in the experimental group)/average number of writhing times in the blank group×100%.
Median Effective Dose (ED50) Determination
The sample to be tested was dissolved with 0.1 mol/L HCl according to the amount of the substance ratio of 1:1, and diluted with physiological saline according to the proportional series to obtain at least 5 groups with different dose concentrations. The writhing inhibition rate of each dose group was tested according to the acetic acid-induced writhing method mentioned above. The obtained dose-writhing inhibition data was entered into the statistical product and service solutions (SPSS) software (version 17.2), and the ED50 of the sample to be tested was calculated through the Probit regression method.

Kunming mice [2] = experiment: Acute toxicity / median lethal dose (LD50) determination, subcutaneous injection; assay type: in vivo; parameters: key to Acute toxicity: if death occurred, (+) represented as positive; if no death occurred, (−) represented as negative; settings: mice administered 20 mg/kg subcutaneously, presence of death within 24 h
Description: as §1, §2
(2) Median Lethal Dose (LD50) Determination
The sample to be tested was dissolved with 0.1 mol/L HCl according to the amount of the substance ratio of 1:1, and diluted with physiological saline according to the required concentration. 10 mice in each group were randomly selected, half of which were male and half of which were female, and were placed in independent cages. Each mouse was injected subcutaneously with different sample solutions to be tested according to a dose of 0.1 mL/10 g body weight. In the preliminary toxicity experiment, the measured concentration was 20 mg/kg, and then based on the survival rate of the experimental animals in the preliminary experiment, the sample to be tested was set to at least 5 groups with different concentration dose according to the proportional series. The survival rate of mice within 24 h was recorded. The obtained dose-survival rate data was input into the SPSS software (version 17.2), and the LD50 of the sample was calculated according to the Probit regression method.

Row | Structure (SMILES) | inhibition in vivo at 0.05 mg/kg (Kunming mice [1]) | Acute toxicity (Kunming mice [2])
1 | CCOc1ccc(C(=O)O[C@]23CC4C([C@H]2OC(=O)c2ccc(OC)cc2)[C@](OC(C)=O)(C[C@@H]3OC)C2[C@H](OC)C3[C@@]5(COC)CC[C@H](OC)[C@@]43[C@@H]2N(CC)C5)cc1 (some centres unmarked) [Compound 37] | 21.2 ± 1.7% | −
2 | CCN1C[C@]2(COC)CC[C@H](OC)[C@@]34C5C[C@]6(OC(=O)c7ccc([N+](=O)[O-])cc7)[C@@H](OC)C[C@@](OC(C)=O)(C5[C@H]6OC(=O)c5ccc(OC)cc5)C([C@H](OC)C23)[C@@H]14 (some centres unmarked) [Compound 40] | 31.9 ± 1.8% | −
3 | CCO[C@]12C[C@H](OC)[C@@]3(OC(C)=O)CC(C1[C@H]3OC(C)=O)[C@]13C4[C@@H](OC)C2[C@H]1N(CC)C[C@]4(COC)CC[C@@H]3OC (some centres unmarked) [Compound 41] | 18.5 ± 2.1% | −
4 | CCO[C@]12C[C@H](OC)[C@@]3(OC(C)=O)CC(C1[C@H]3OC(=O)c1ccc(OC)cc1)[C@]13C4[C@@H](OC)C2[C@H]1N(CC)C[C@]4(COC)CC[C@@H]3OC (some centres unmarked) [Compound 42] | 23 ± 1.7% | −
5 | CCN1C[C@]2(COC)CC[C@H](OC)[C@@]34C5C[C@]6(OC(C)=O)[C@@H](OC)C[C@@](OC(C)=O)(C5[C@H]6OC(=O)c5ccc(OC)cc5)C([C@H](OC)C23)[C@@H]14 (some centres unmarked) [Compound 43] | 4.92 ± 1.5% | −
6 | CCN1C[C@]2(COC)CC[C@H](OC)[C@@]34C5C[C@]6(OC(C)=O)[C@@H](OC)C[C@@](OC)(C5[C@H]6OC(C)=O)C([C@H](OC)C23)[C@@H]14 (some centres unmarked) [Compound 44] | 5.82 ± 3.4% | −
7 | CCN1C[C@]2(COC)CC[C@H](OC)[C@@]34C5C[C@]6(OC(C)=O)[C@@H](OC)C[C@@](OC)(C5[C@H]6OC(=O)c5ccc(OC)cc5)C([C@H](OC)C23)[C@@H]14 (some centres unmarked) [Compound 45] | 21.6 ± 1.3% | −
8 | CCO[C@]12C[C@H](OC)[C@@]3(OC(=O)c4ccc(C(F)(F)F)cc4)CC(C1[C@H]3OC(=O)c1ccc(C(F)(F)F)cc1)[C@]13C4[C@@H](OC)C2[C@H]1N(CC)C[C@]4(COC)CC[C@@H]3OC (some centres unmarked) [Compound 46] | 16.7 ± 2.6% | −
9 | CCO[C@]12C[C@H](OC)[C@@]3(OC(=O)c4ccc(C(F)(F)F)cc4)CC(C1[C@H]3OC(=O)c1ccc(OC)cc1)[C@]13C4[C@@H](OC)C2[C@H]1N(CC)C[C@]4(COC)CC[C@@H]3OC (some centres unmarked) [Compound 47] | 33.8 ± 2.2% | −
10 | CCN1C[C@]2(COC)CC[C@H](OC)[C@@]34C5C[C@]6(OC(=O)c7ccc(C(F)(F)F)cc7)[C@@H](OC)C[C@@](OC(C)=O)(C5[C@H]6OC(=O)c5ccc(OC)cc5)C([C@H](OC)C23)[C@@H]14 (some centres unmarked) [Compound 48] | 17.5 ± 3% | −
11 | CCO[C@]12C[C@H](OC)[C@@]3(OC(=O)c4ccncc4)CC(C1[C@H]3OC(=O)c1ccncc1)[C@]13C4[C@@H](OC)C2[C@H]1N(CC)C[C@]4(COC)CC[C@@H]3OC (some centres unmarked) [Compound 49] | 13.7 ± 1% | −
12 | CCO[C@]12C[C@H](OC)[C@@]3(OC(=O)c4ccncc4)CC(C1[C@H]3OC(=O)c1ccc(OC)cc1)[C@]13C4[C@@H](OC)C2[C@H]1N(CC)C[C@]4(COC)CC[C@@H]3OC (some centres unmarked) [Compound 50] | 33.2 ± 1.4% | −
13 | CCN1C[C@]2(COC)CC[C@H](OC)[C@@]34C5C[C@]6(OC(=O)c7ccncc7)[C@@H](OC)C[C@@](OC(C)=O)(C5[C@H]6OC(=O)c5ccc(OC)cc5)C([C@H](OC)C23)[C@@H]14 (some centres unmarked) [Compound 51] | 32.6 ± 1.7% | −
14 | CCO[C@]12C[C@H](OC)[C@@]3(OC(=O)c4ccccc4)CC(C1[C@H]3OC(=O)c1ccc(OC)cc1)[C@]13C4[C@@H](OC)C2[C@H]1N(CC)C[C@]4(COC)CC[C@@H]3OC (some centres unmarked) [Compound 53] | 0% | −
15 | CCN1C[C@]2(COC)CC[C@H](OC)[C@@]34C5C[C@]6(OC(=O)c7ccccc7)[C@@H](OC)C[C@@](OC(C)=O)(C5[C@H]6OC(=O)c5ccc(OC)cc5)C([C@H](OC)C23)[C@@H]14 (some centres unmarked) [Compound 54] | 0% | −
16 | CCN1C[C@]2(COC)CC[C@H](OC)[C@@]34C5C[C@]6(OC(=O)c7ccccc7)[C@@H](OC)C[C@@](OC)(C5[C@H]6OC(=O)c5ccccc5)C([C@H](OC)C23)[C@@H]14 (some centres unmarked) [Compound 55] | 11.7 ± 1.6% | −
17 | CCO[C@]12C[C@H](OC)[C@@]3(OC(=O)c4ccc(C)cc4)CC(C1[C@H]3OC(=O)c1ccc(C)cc1)[C@]13C4[C@@H](OC)C2[C@H]1N(CC)C[C@]4(COC)CC[C@@H]3OC (some centres unmarked) [Compound 56] | 11.4 ± 2% | −
18 | CCO[C@]12C[C@H](OC)[C@@]3(OC(=O)c4ccc(C)cc4)CC(C1[C@H]3OC(=O)c1ccc(OC)cc1)[C@]13C4[C@@H](OC)C2[C@H]1N(CC)C[C@]4(COC)CC[C@@H]3OC (some centres unmarked) [Compound 57] | 5.39 ± 2% | −
19 | CCN1C[C@]2(COC)CC[C@H](OC)[C@@]34C5C[C@]6(OC(=O)c7ccc(C)cc7)[C@@H](OC)C[C@@](OC(C)=O)(C5[C@H]6OC(=O)c5ccc(OC)cc5)C([C@H](OC)C23)[C@@H]14 (some centres unmarked) [Compound 58] | 28.8 ± 1.8% | −
20 | CCN1C[C@]2(COC)CC[C@H](OC)[C@@]34C5C[C@]6(OC(=O)c7ccc(F)cc7)[C@@H](OC)C[C@@](OC(C)=O)(C5[C@H]6OC(=O)c5ccc(OC)cc5)C([C@H](OC)C23)[C@@H]14 (some centres unmarked) [Compound 61] | 34 ± 1.9% | −
21 | CCO[C@]12C[C@H](OC)[C@@]3(OC(=O)c4cccc(C)c4)CC(C1[C@H]3OC(=O)c1cccc(C)c1)[C@]13C4[C@@H](OC)C2[C@H]1N(CC)C[C@]4(COC)CC[C@@H]3OC (some centres unmarked) [Compound 62] | 15 ± 2.4% | −
22 | CCO[C@]12C[C@H](OC)[C@@]3(OC(=O)c4ccc(CC)cc4)CC(C1[C@H]3OC(=O)c1ccc(CC)cc1)[C@]13C4[C@@H](OC)C2[C@H]1N(CC)C[C@]4(COC)CC[C@@H]3OC (some centres unmarked) [Compound 63] | 0% | −
23 | CCO[C@]12C[C@H](OC)[C@@]3(OC(=O)c4ccc(Br)cc4)CC(C1[C@H]3OC(=O)c1ccc(Br)cc1)[C@]13C4[C@@H](OC)C2[C@H]1N(CC)C[C@]4(COC)CC[C@@H]3OC (some centres unmarked) [Compound 64] | 22.4 ± 1.4% | −
24 | CCO[C@]12C[C@H](OC)[C@@]3(OC(=O)c4ccc(Cl)cc4)CC(C1[C@H]3OC(=O)c1ccc(Cl)cc1)[C@]13C4[C@@H](OC)C2[C@H]1N(CC)C[C@]4(COC)CC[C@@H]3OC (some centres unmarked) [Compound 65] | 32.3 ± 1.7% | −
25 | CCO[C@]12C[C@H](OC)[C@@]3(OC(=O)c4ccccc4OC)CC(C1[C@H]3OC(=O)c1ccccc1OC)[C@]13C4[C@@H](OC)C2[C@H]1N(CC)C[C@]4(COC)CC[C@@H]3OC (some centres unmarked) [Compound 66] | 22.9 ± 2.4% | −
